# Key:
# Type in all cases: cell-based
# E. faecalis ATCC29212 = assay: Intrinsic antibacterial activity, standard microdilution (CLSI); conditions: Enterococcus faecalis; E. faecalis ATCC29212, compound alone, 24 h, 37 °C
# Description: (§1) The bacterial strains used in the examples below are the reference strains P. aeruginosa ATCC27853, E. coli ATCC25922, K. pneumoniae ATCC51296, S. aureus ATCC25923 and E. faecalis ATCC29212. The bacterial strains were previously stored in 15% (v/v) glycerol at −80 °C for cryoprotection. One colony of the fresh culture of each strain was incubated in a culture tube containing 3 ml of Mueller-Hinton broth (MH2) at 37 °C overnight with agitation. This suspension was used for inoculum preparation.
# (§2) The antibacterial activity of said polyaminated fatty acid compounds was measured using a standard microdilution test based on Clinical and Laboratory Standards Institute (CLSI) guidelines. This method was slightly modified by increasing the assay volumes to 200 μl so as to improve reproducibility.
# (§3) A negative control which corresponds to 2 ml of sterile culture medium and a positive control which corresponds to a mixture of 1980 μl of culture medium and 20 μl of bacterial suspension from a thawed biological strain (biological strains are stored at −80 °C in glycerol) were prepared.
# (§4) The tubes were incubated in an incubator shaker “Infors” at 37 °C for 24 hours at 100 round per minute (rpm).
# (§5) The polyaminated fatty acid compounds to be tested were prepared in water at a concentration of 10 mM.
# (§6) The required volume of the microbial suspension to be inoculated was calculated for an optical density (OD) measured corresponding to a value equal to 0.01 in each well by using a spectrophotometer at 600 nm. In the microplate, the first row corresponded to the negative control (200 μl of sterile culture medium in each well), the second row to the positive control (seeded culture medium), the third row was loaded twice with bacterial suspension and with 8 μl of a given polyaminated fatty acid compound in each well. Subsequently, a half-fold cascade dilution was performed from this line. The first column was used as an inhibition control. A sterile filter was then placed on the microplate allowing the passage of gases but not contaminants. The microplate was incubated at 37 °C in a humid atmosphere for 24 hours. After 24 hours of incubation, an optical density measurement was performed by taking 100 μl of the bacterial suspension diluted in 900 μl of sterile culture medium.
# (§7) The medium used was Mueller-Hinton medium (MH) for bacteria. All tests were performed in duplicate.
# (§8) Table 1 below reports the intrinsic antibacterial activity of some polymaminated fatty acids prepared in example 1 (MIC in μM) as well as their toxicity towards eucaryotic cells (IC50 in μM).
# P. aeruginosa ATCC27853 [1] = assay: as above; conditions: Pseudomonas aeruginosa; P. aeruginosa ATCC27853, compound alone, 24 h, 37 °C
# Description: as §1, §2, §3, §4, §5, §6, §7, §8
# S. aureus ATCC25923 = assay: as above; conditions: Staphylococcus aureus; S. aureus ATCC25923, compound alone, 24 h, 37 °C
# Description: as §1, §2, §3, §4, §5, §6, §7, §8
# E. coli ATCC28922 [2] = assay: as above; conditions: Escherichia coli, ATCC28922, 24 h
# [3] = test system: Chinese hamster ovary cells (CHO-K1); assay: Toxicity on mammalian cells, WST1 assay; conditions: Cricetulus griseus; CHO-K1 cell viability, WST1, 24 h
# Description: The WST1 assay was used to measure the cytotoxic activity of the polyaminated fatty acid compounds. It is a colorimetric assay that measures viability and cell proliferation rate. It is based on the cleavage of colorless tetrazolium salts WST-1 (4-[3-(4-iodophenyl)-2-(4-nitrophenyl)-2H-5-tetrazolio]-1,3-benzene disulfonate) by mitochondrial dehydrogenases into yellow formazan derivative, quantifiable by spectrophotometry at 420-480 nm.
# The WST1 assay was performed on Chinese hamster ovary cells. CHO-K1 cells (ATCC, USA) were maintained in culture in “Mac Coy's 5A” medium supplemented with 10% fetal calf serum, 2 mM L-glutamine and streptomycin penicillin mixture (100 U/ml: 10 μg/ml). Incubation is carried out at 37 °C under CO2 enriched atmosphere (5% by volume) and subcultured every two days.
# Cells are transferred to 96-well plates (25,000 cells/ml) in complete “Mac Coy's 5A medium”, and maintained for 24 h at 37 °C under a humid CO2-enriched atmosphere (5% by volume). Increasing concentrations of given polyaminated fatty acid compounds are added to the wells in duplicate assays and 8 growth controls containing cells in medium alone are included in each assay run. After 24 hours at 37 °C (5% CO2), the culture medium is removed, the cells are rinsed in phosphate buffer (PBS) and 50 μL of PBS containing 10% WST1 reagent is added to each well. After 20 minutes of incubation at 37 °C, the results are read by spectrophotometry at 450 nm.
# The results are expressed as dose-response relationships, modeled by a non-linear regression analysis using TableCurve software. The 50% Inhibitory Concentration (IC50) represents the concentration of polyaminated fatty acid compound capable of reducing cell viability by 50%.
# P. aeruginosa ATCC27853 [4] = assay: Antibacterial activity in combination with doxycycline; conditions: Pseudomonas aeruginosa, 24 h
# Description: (§9) 100 μl of a liquid culture medium is deposited in each well of a 96-well microplate, and then inoculated with the bacterial suspension of example 2.1 prepared for the positive control. The volume needed to inoculate is calculated for an OD of 0.01 which corresponds to approximately 5,106 bacteria in each well. In this plate, the first row corresponds to a negative control (200 μl of sterile culture medium in each well), the second row to a positive control (100 μl of sterile culture medium with 100 μl of the bacterial suspension), the third row contains 192 μl of culture medium and 8 μl of polyaminated fatty acid compound to be tested in each well. Subsequently, a cascade dilution is performed from this line. Next, 3-8 μl of a doxycycline solution (1 mg dissolved in 20 ml) is added to each well of the lines to obtain a final antibiotic concentration of 2 μg/ml. Then, 92 μl of bacterial suspension is added to lines 3 to 8. The MIC with a concentration of doxycycline of 2 μg/ml in the presence of X μg/ml of polyaminated fatty acid compound is determined after 24 hours of incubation at 37 °C in a humid atmosphere.
# The table 2 below reports the antibacterial activity (MIC in μM) of a combination of some polyaminated fatty acids prepared in example 1 with two antibacterial drugs doxycycline and erythromycin. […] On the Gram-negative strain of E. coli ([…]), erythromycin has a MIC of 50 μg/ml.
# E. coli ATCC28922 [5] = assay: Antibacterial activity in combination with erythromycin; conditions: Escherichia coli, ATCC28922, 24 h
# Description: as §9
# The table 2 below reports the antibacterial activity (MIC in μM) of a combination of some polyaminated fatty acids prepared in example 1 with two antibacterial drugs doxycycline and erythromycin. […]
# E. coli AG-100A = assay: Potentiation of known antibiotics (MIC of antibiotic alone or with PAFA); conditions: Escherichia coli, AG100A, 24 h
# Description: (§10) 100 μl of a liquid culture medium is deposited in each well of a 96-well microplate, and then inoculated with the bacterial suspension of example 2.1 prepared for the positive control. The volume needed to inoculate is calculated for an OD of 0.01 which corresponds to approximately 5,106 bacteria in each well. In this plate, the first row corresponds to a negative control (200 μl of sterile culture medium in each well), the second row to a positive control (100 μl of sterile culture medium with 100 μl of the bacterial suspension), the third row contains 192 μl of culture medium and 8 μl of an antibiotic solution (10 mg/ml) to be tested in each well. Subsequently, a cascade dilution is performed from this line. Next, 10 μl of a fatty acid solution (10 μM final concentration) is added to each well of the lines. Then, 90 μl of bacterial suspension is added to lines 3 to 8. The MIC of the antibiotic tested is determined after 24 hours of incubation at 37 °C in a humid atmosphere.
# (§11) The table 3 below reports the antibacterial activity (MIC in μg/mL) of a combination of some polyaminated fatty acids prepared in example 1 with various antibacterial drugs: doxycycline (DOX), tetracycline (TET), oxytetracycline (OXY) and minocycline (MINO), against various bacterial strains of P. aeruginosa (PA01, PA0509, and PA263), and of E. coli (AG-100 and AG-100A).
# E. coli AG-100 = assay: as above; conditions: Escherichia coli, AG100, 24 h
# Description: as §10, §11
# P. aeruginosa PA01 = assay: as above; conditions: Pseudomonas aeruginosa, PA01, 24 h
# Description: as §10, §11
# P. aeruginosa PA0509 = assay: as above; conditions: Pseudomonas aeruginosa, PA0509, 24 h
# Description: as §10, §11
# P. aeruginosa PA263 = assay: as above; conditions: Pseudomonas aeruginosa, PA263, 24 h, 24 h
# Description: as §10, §11
# [6] = P. aeruginosa ATCC27853 + Doxycycline (2 μg/ml)
smiles,measurement,setting,value
CCCCC/C=C\C/C=C\CCCCCCCC(=O)NCCCN(C)CCCN [PAFA9],MIC,E. faecalis ATCC29212,50 µM
same,MIC,P. aeruginosa ATCC27853 [1],200 µM
same,MIC,S. aureus ATCC25923,50 µM
same,MIC,E. coli ATCC28922 [2],25 µM
same,IC50,[3],84 µM
same,MIC,P. aeruginosa ATCC27853 [4]; [6],25 µM
CCCCC/C=C\C/C=C\CCCCCCCC(=O)NCCCNCCCN [PAFA11],MIC,E. faecalis ATCC29212,12.5 µM
same,MIC,P. aeruginosa ATCC27853 [1],25 µM
same,MIC,S. aureus ATCC25923,12.5 µM
same,MIC,E. coli ATCC28922 [2],100 µM
same,IC50,[3],21 µM
same,MIC,P. aeruginosa ATCC27853 [4]; [6],12.5 µM
CCCCC/C=C\C/C=C\CCCCCCCC(=O)NCCCN(CCCN)CCCN [PAFA10],MIC,E. faecalis ATCC29212,25 µM
same,MIC,P. aeruginosa ATCC27853 [1],25 µM
same,MIC,S. aureus ATCC25923,25 µM
same,MIC,E. coli ATCC28922 [2],> 200 µM
same,IC50,[3],79 µM
same,MIC,P. aeruginosa ATCC27853 [4]; [6],12.5 µM
CC[C@H]1OC(=O)[C@H](C)[C@@H](O[C@H]2C[C@@](C)(OC)[C@@H](O)[C@H](C)O2)[C@H](C)[C@@H](O[C@@H]2O[C@H](C)C[C@H](N(C)C)[C@H]2O)[C@](C)(O)C[C@@H](C)C(=O)[C@H](C)[C@@H](O)[C@]1(C)O [erythromycin],MIC,E. coli ATCC28922 [5],50 µg/mL
CCCCC/C=C\C/C=C\CCCCCCCC(=O)NCCNCCNCCN [PAFA12],MIC,E. faecalis ATCC29212,100 µM
same,MIC,P. aeruginosa ATCC27853 [1],100 µM
same,MIC,S. aureus ATCC25923,200 µM
same,MIC,E. coli ATCC28922 [2],50 µM
same,IC50,[3],166 µM
same,MIC,P. aeruginosa ATCC27853 [4]; [6],50 µM
CCCCC/C=C\C/C=C\CCCCCCCC(=O)NCCCNCCCCNCCCN [PAFA14],MIC,E. faecalis ATCC29212,12.5 µM
same,MIC,P. aeruginosa ATCC27853 [1],100 µM
same,MIC,S. aureus ATCC25923,12.5 µM
same,MIC,E. coli ATCC28922 [2],25 µM
same,IC50,[3],98 µM
same,MIC,P. aeruginosa ATCC27853 [4]; [6],6.25 µM
"C[C@H]1c2cccc(O)c2C(=O)C2=C(O)[C@]3(O)C(=O)C(C(N)=O)=C(O)[C@@H](N(C)C)[C@@H]3[C@@H](O)[C@@H]21 [DOX, doxycycline]",MIC,"P. aeruginosa ATCC27853 [4]; antibiotic alone, P. aeruginosa ATCC27853",32 µg/mL
same,MIC,E. coli AG-100A; Antibiotic alone,0.5 µg/mL
same,MIC,"E. coli AG-100A; MIC of antibiotic, +PAFA10 (10 μM)",0.25 µg/mL
same,MIC,"E. coli AG-100A; MIC of antibiotic, +PAFA11 (10 μM)",0.25 µg/mL
same,MIC,"E. coli AG-100A; MIC of antibiotic, +PAFA14 (10 μM)",0.008 µg/mL
same,MIC,"E. coli AG-100; AG-100, Antibiotic alone",1 µg/mL
same,MIC,"E. coli AG-100; MIC of antibiotic, AG-100, +PAFA10 (10 μM)",0.25 µg/mL
same,MIC,"E. coli AG-100; MIC of antibiotic, AG-100, +PAFA11 (10 μM)",0.25 µg/mL
same,MIC,"E. coli AG-100; MIC of antibiotic, AG-100, +PAFA14 (10 μM)",0.008 µg/mL
same,MIC,"P. aeruginosa PA01; MIC of antibiotic, PA01, +PAFA10 (10 μM)",2 µg/mL
same,MIC,"P. aeruginosa PA01; MIC of antibiotic, PA01, +PAFA11 (10 μM)",2 µg/mL
same,MIC,"P. aeruginosa PA01; MIC of antibiotic, PA01, +PAFA14 (10 μM)",0.125 µg/mL
same,MIC,"P. aeruginosa PA01; PA01, Antibiotic alone",32 µg/mL
same,MIC,P. aeruginosa PA0509,1 µg/mL
same,MIC,"P. aeruginosa PA0509; MIC of antibiotic, PA0509, +PAFA10 (10 μM), 24 h",0.25 µg/mL
same,MIC,"P. aeruginosa PA0509; MIC of antibiotic, PA0509, +PAFA11 (10 μM), 24 h",0.25 µg/mL
same,MIC,"P. aeruginosa PA0509; MIC of antibiotic, PA0509, +PAFA14 (10 μM), 24 h",0.125 µg/mL
same,MIC,"P. aeruginosa PA263; MIC of antibiotic, PA263, +PAFA10 (10 μM)",8 µg/mL
same,MIC,"P. aeruginosa PA263; MIC of antibiotic, PA263, +PAFA11 (10 μM)",4 µg/mL
same,MIC,"P. aeruginosa PA263; MIC of antibiotic, PA263, +PAFA14 (10 μM)",1 µg/mL
same,MIC,"P. aeruginosa PA263; PA263, Antibiotic alone",32 µg/mL
CCCCC/C=C\C/C=C\CCCCCCCC(=O)NCCCCN [PAFA8],MIC,E. faecalis ATCC29212,> 200 µM
same,MIC,P. aeruginosa ATCC27853 [1],> 200 µM
same,MIC,S. aureus ATCC25923,200 µM
same,MIC,E. coli ATCC28922 [2],> 200 µM
